These results are taken from US20230310452A1, “BROMODOMAIN AND EXTRA TERMINAL DOMAIN (BET) INHIBITOR COMPOSITIONS AND METHODS THEREOF FOR USE AS ANTI-AGING AGENTS” (MDI Biological Laboratory, priority 2020, published 2023).

SMILES strings stand for the structures. “Also recorded” adds a separate entry of the source.

Data set [1] has as its system CGI- gene expression. The experiment in a line: CGI- gene expression upon treatment with BET inhibitors other than JQ1 in cell lines/tissues (FIG. 14). The format is cell-based. Conditions: indicated cell lines/tissues, concentrations, durations, vs untreated controls. The text has this:
Moreover, the cell line or tissue used in the BET inhibitor treatment, as well as treatment duration and concentration were also provided.

A further data set has as its system C. elegans. In words: C. elegans lifespan after one-time JQ1 treatment (FIG. 12D). The format is in vivo. Conditions: representative of three blind tests. From the text: (§1) FIG. 12 illustrates JQ1 treatment suppresses CGI- gene misexpression. FIGS. 12A-12B show gene expression changes upon JQ1 treatment. […] All data are from the comparison of JQ1 treated with untreated controls for CGI+ genes (upper) and CGI- genes (lower) for each cell type. TAC: transverse aortic constriction. […] Representative data from three blind tests with similar results are shown. The control (Con) curve is to the left of the JQ1 treatment curve from 12-19 days post treatment.
(§2) The effects of JQ1 on C. elegans lifespan was also tested. […] Treatment with BET inhibitors can suppress misexpression of CGI- genes during aging, and that this, in turn, will delay age-associated degenerative changes in mice.

The test system of data set [2] is CGI- gene expression. In words: JQ1 in vivo treatment of mice, published RNA-seq data, CGI- gene expression (FIG. 13). The note with it: intraperitoneal injections of 50 mg/kg/day, vs untreated controls. Here is the method:
FIG. 13 illustrates JQ1 in vivo treatment data based on published RNA-seq data generated from mice by intraperitoneal injections of 50 mg/kg/day as indicated. All data are from the comparison with untreated controls for CGI+ genes (upper) and CGI- genes (lower) for each of *p < 0.05; **p < 0.01, ***p< 0.001. Sham operation; transverse aortic constriction (TAC); myocardial infarction (MI).
All of the data were based on published RNA-seq data and compared to untreated controls for CGI+ and CGI- genes.

The conditions of data set [3]: cited from earlier work.
Another data set relates to CGI- genes / CGI+ genes. The experiment in a line: Gene expression changes upon JQ1 treatment versus untreated controls (FIGS. 12A-12C). Type of data set: cell-based.
Source text: as §1
BET family proteins (e.g., BRD2/4) are also components of local enhancer mediated transcriptional activation (FIG. 11A).
as §2

The next data set relates to BET. Conditions: cited from earlier work.

`CCS(=O)(=O)Nc1ccc(Oc2ccc(F)cc2F)c(-c2cn(C)c(=O)c3[nH]ccc23)c1` [ABBV-075, N-(4-(2,4-difluorophenoxy)-3-(6-methyl-7-oxo-6,7-dihydro-1H-pyrrolo[2,3-c]pyridin-4-yl)phenyl)ethanesulfonamide]: the “CGI- gene expression upon BET inhibitors other than JQ1” value with CGI- gene expression [1] is recorded as “suppress Cytosine-phosphate-Guanine (CpG) island negative genes”. On to `CCNC(=O)c1cc2c(-c3cc(C(C)(C)O)ccc3Oc3c(C)cc(F)cc3C)cn(C)c(=O)c2[nH]1` [ABBV-744, N-ethyl-4-(2-(4-fluoro-2,6-dimethylphenoxy)-5-(2-hydroxypropan-2-yl)phenyl)-6-methyl-7-oxo-6,7-dihydro-1H-pyrrolo[2,3-c]pyridine-2-carboxamide], for which the “CGI- gene expression upon BET inhibitors other than JQ1” value in the data set with CGI- gene expression [1] is listed as “suppress Cytosine-phosphate-Guanine (CpG) island negative genes”. For the compound `Cc1sc2c(c1C)C(c1ccc(Cl)cc1)=N[C@@H](CC(=O)Nc1ccc(OCCOCCOCCOCCNc3cccc4c3C(=O)N(C3CCC(=O)NC3=O)C4=O)cc1)c1nnc(C)n1-2` (stereo partly drawn) [ARV-825, 2-((S)-4-(4-chlorophenyl)-2,3,9-trimethyl-6H-thieno[3,2-f][1,2,4]triazolo [4,3-a][1,4]diazepin-6-yl)-N-(4-(2-(2-(2-(2-((2-(2,6-dioxopiperidin-3-yl)-1,3-dioxoisoindolin-4-yl)amino)ethoxy)ethoxy)ethoxy)ethoxy)phenyl)acetamide], the “CGI- gene expression upon BET inhibitors other than JQ1” value in the data set on CGI- gene expression [1] is given as “suppress Cytosine-phosphate-Guanine (CpG) island negative genes”. As for `COc1nnc2ccc(N3CCC(c4ccc(OCCN5CCN(C)C(=O)[C@H]5C)cc4)CC3)nn12` [AZD 5153, (R)-4-(2-(4-(1-(3-methoxy-[1,2,4]triazolo[4,3-b]pyridazin-6-yl)piperidin-4-yl)phenoxy)ethyl)-1,3-dimethylpiperazin-2-one], in the data set with CGI- gene expression [1], the “CGI- gene expression upon BET inhibitors other than JQ1” value is given as “suppress Cytosine-phosphate-Guanine (CpG) island negative genes”.

Regarding `Cc1sc2c(c1C)C(c1ccc(Cl)cc1)=N[C@@H](CC(N)=O)c1nnc(C)n1-2` [CPI-203, (S)-2-(4-(4-chlorophenyl)-2,3,9-trimethyl-6H-thieno[3,2-f][1,2,4]triazolo [4,3-a][1,4]diazepin-6-yl)acetamide], the “CGI- gene expression upon BET inhibitors other than JQ1” value with CGI- gene expression [1] is reported as “suppress Cytosine-phosphate-Guanine (CpG) island negative genes”. `COc1cc2c(cc1-c1c(C)noc1C)ncc1[nH]c(=O)n([C@H](C)c3ccccn3)c12` [I-BET 151, (R)-7-(3,5-dimethylisoxazol-4-yl)-8-methoxy-1-(1-(pyridin-2-yl)ethyl)-1,3-dihydro-2H-imidazo[4,5-c]quinolin-2-one]: the “CGI- gene expression upon BET inhibitors other than JQ1” value with CGI- gene expression [1] was “suppress Cytosine-phosphate-Guanine (CpG) island negative genes”. Consider `Cc1sc2c(c1C)C(c1ccc(Cl)cc1)=N[C@@H](CC(=O)OC(C)(C)C)c1nnc(C)n1-2` [JQ1, tert-butyl (S)-2-(4-(4-chlorophenyl)-2,3,9-trimethyl-6H-thieno[3,2-f][1,2,4]triazolo[4,3-a][1,4]diazepin-6-yl)acetate], for which the “median lifespan of adult C. elegans” value in the data set on C. elegans was “significantly extended the median lifespan; also recorded: lifespan extension”. Moreover, the “CGI- gene expression in mice” value in the data set with CGI- gene expression [2] is listed as “suppression of CGI- gene expression”. Also, the safety for humans result in data set [3] is listed as “safe for humans”. In the data set with CGI- genes / CGI+ genes (FIG. 12C), the “overlap of CGI- genes downregulated by JQ1 with CGI- genes upregulated during aging or upon nuclear architecture disruption” value is reported as “largely overlapped”. For the same compound, the “CGI- gene expression upon JQ1 treatment” value in the data set on CGI- genes / CGI+ genes (JQ1 treated vs untreated controls, each cell type, FIGS. 12A-12B) is “global downregulation of CGI- gene expression; also recorded: suppresses CGI- gene expression”. The “CGI+ gene expression upon JQ1 treatment” value in the data set with CGI- genes / CGI+ genes (JQ1 treated vs untreated controls, FIGS. 12A-12B) is listed as “not significantly affected”. As to `COC(=O)C[C@@H]1N=C(c2ccc(Cl)cc2)c2c(sc(C)c2C)-n2c(C)nnc21` [MS417, methyl (S)-2-(4-(4-chlorophenyl)-2,3,9-trimethyl-6H-thieno[3,2-f][1,2,4]triazolo[4,3-a][1,4]diazepin-6-yl)acetate], in the data set with CGI- gene expression [1], the “CGI- gene expression upon BET inhibitors other than JQ1” value is on record as “suppress Cytosine-phosphate-Guanine (CpG) island negative genes”.

In the case of `Cc1sc2c(c1C)C(c1ccc(Cl)cc1)=N[C@@H](CC(=O)NCCCCCCCCCCNC(=O)C[C@@H]1N=C(c3ccc(Cl)cc3)c3c(sc(C)c3C)-n3c(C)nnc31)c1nnc(C)n1-2` [MS645, (S)-N,N′-(decane-1,10-diyl)bis(2-((6S)-4-(4-chlorophenyl)-2,3,9-trimethyl-6H-thieno[3,2-f] [1,2,4]triazolo[4,3-a][1,4]diazepin-6-yl)acetamide)], the “CGI- gene expression upon BET inhibitors other than JQ1” value in the data set with CGI- gene expression [1] is listed as “suppress Cytosine-phosphate-Guanine (CpG) island negative genes”. Still for that read-out and setting: as for `Cc1noc(C)c1-c1cnc2c(-c3ccc(C(=O)O)cc3)cn([C@@H](C)c3ccccn3)c2c1` [PLX51107, (S)-4-(6-(3,5-dimethylisoxazol-4-yl)-1-(1-(pyridin-2-yl)ethyl)-1H-pyrrolo[3,2-b]pyridin-3-yl)benzoic acid], the entry is “suppress Cytosine-phosphate-Guanine (CpG) island negative genes”. The same measure, in the same setting: as for `COc1cc(-c2cn(C)c(=O)c3cnccc23)cc(OC)c1CN(C)CC(=O)NCCOCCOCCNc1cccc2c1C(=O)N(C1CCC(=O)NC1=O)C2=O.Cl.Cl` (centres unmarked) [dBRD9, 2-[[[4-(1,2-Dihydro-2-methyl-1-oxo-2,7-naphthyridin-4-yl)-2-6-dimethoxyphenyl]methyl]methylamino]-N-[2-[2-[2-[[2-(2,6-dioxo-3-piperidinyl)-2,3-dihydro-1,3-dioxo-1H-isoindol-4-yl]amino]ethoxy]ethoxy]ethyl] acetamide dihydrochloride], the entry is “suppress Cytosine-phosphate-Guanine (CpG) island negative genes”. On to `Oc1ccc(C=Cc2cc(O)cc(O)c2)cc1` [resveratrol], for which the pan-BET inhibitor activity entry with BET is given as “pan-BET inhibitor activity”.
